From US20100317831A1, “PROBE COMPOUNDS FOR PROTEIN TYROSINE PHOSPHATASE (PTP) AND PRECURSORS THEREOF” (NATIONAL TAIWAN UNIVERSITY, priority 2009, published 2010)

Target: T1, PTP1B (Homo sapiens, UniProt P18031)
T1 sequence (P18031 1-435): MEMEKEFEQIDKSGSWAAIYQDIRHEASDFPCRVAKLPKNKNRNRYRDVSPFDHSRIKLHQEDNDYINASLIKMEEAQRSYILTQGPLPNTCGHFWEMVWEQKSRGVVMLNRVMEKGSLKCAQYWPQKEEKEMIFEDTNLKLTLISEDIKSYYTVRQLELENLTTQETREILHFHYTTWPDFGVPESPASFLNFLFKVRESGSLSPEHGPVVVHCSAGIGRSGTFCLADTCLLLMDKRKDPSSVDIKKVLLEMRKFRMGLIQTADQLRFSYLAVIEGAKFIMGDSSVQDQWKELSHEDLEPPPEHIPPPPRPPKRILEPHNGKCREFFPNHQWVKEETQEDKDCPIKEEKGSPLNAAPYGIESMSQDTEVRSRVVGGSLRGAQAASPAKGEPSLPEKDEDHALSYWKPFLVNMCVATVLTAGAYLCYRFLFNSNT
Test: PTP1B labeling by probe compound (streptavidin immunoblot)
Assay type: biochemical
Excerpt: FIG. 1b was visualized by immunoblotting analysis (streptavidin) after transferring the reaction products onto a nitrocellulose membrane. […] Since the probe compounds themselves are also the substrates of the corresponding PTPs, the results clearly indicate that the newly developed latent trapping unit well mimics the phosphorotyrosine residue of the natural substrate. […] In the absence of PTPs, they underwent hydrolysis slowly and the purity remained greater than 90% even after 1 hr (as determined by HPLC).
To test if probe compounds 30a-c could differentiate PTPs from other phosphatases, we conducted labeling experiments on nine phosphatases, including five PTPs, alkaline phosphatase (ALP), PTEN (dephosphorylating the phosphatidylinositol 3,4,5-trisphosphate), and two serine/threonine phosphatases (PPP1CA and PPM1A).
In order to further study how well probe compounds 30a-c could differentiate between the various PTPs, we compared the labeling intensities on five PTPs (PTP1B, SHP2, TCPTP, VHR, and PTPPEST) with those obtained from probe 1 (LCL2). When the intensities of the probe compounds 30a-c-labeled bands in each set of experiments were normalized relative to that of a probe 1-labeled band, we were able to establish a quantitative comparison of their labeling preference (as shown in FIGS. 4a to 4e). […] Of the five PTPs tested, the substrate specificities of PTP1B, TCPTP, and SHP2 were better studied than those of VHR and PTP-PEST. […] The trend of substrate preference obtained from this study was similar to those determined by other methods. We have also compared the labeling intensity data for the other two PTPs, VHR (a dual-specificity phosphatase) and PTP-PEST (a classical PTP). […] This provides evidence to support the concept that probe compounds with added amino acid residues flanking the latent trapping device were able to influence their target specificities.

Structure (SMILES): CC(C)CC(NC(=O)C(Cc1ccc(OP(=O)(O)O)c(CF)c1)NC(=O)C(CCC(=O)O)NC(=O)CCC(=O)NCCOCCOCCNC(=O)CCCCC1SC[C@H]2NC(=O)N[C@@H]12)C(N)=O (stereo partly drawn) [compound 30b]
- biotinylated adduct (labeling of PTP1B) with phosphatase inhibitor present (Na3VO4 present in the incubation mixture): no biotinylated adduct was observed
- activity dependence of labeling of PTPs (PTP1B and TCPTP, conclusion from Na3VO4 control): activity dependent
- biotinylated protein bands (labeling of PTP1B) (immunoblotting analysis (streptavidin), FIG. 1b): Intense biotinylated protein bands were observed
